From article PMC7113757 (Antiviral Research, 2014)

Key:
[1] = biological target: T1, CVB3 3C^pro (Coxsackievirus B3, UniProt P03313); assay: Cell-based protease assay
[2] = biological target: FMDV 3C^pro (Foot-and-mouth disease virus serotype O, UniProt P03305); assay: cell-based; type: cell-based
[3] = biological target: EV71 3C^pro (Human enterovirus 71, UniProt Q66478); type: cell-based
[4] = biological target: PV 3C^pro (Poliovirus type 1, UniProt P03300); type: cell-based
[5] = biological target: HRV14 3C^pro (Human rhinovirus 14, UniProt P03303); type: cell-based
[6] = biological target: T2, EMCV 3C^pro (Encephalomyocarditis virus, UniProt P03304); type: cell-based
T2 sequence (P03304 1626-1830 limits assumed): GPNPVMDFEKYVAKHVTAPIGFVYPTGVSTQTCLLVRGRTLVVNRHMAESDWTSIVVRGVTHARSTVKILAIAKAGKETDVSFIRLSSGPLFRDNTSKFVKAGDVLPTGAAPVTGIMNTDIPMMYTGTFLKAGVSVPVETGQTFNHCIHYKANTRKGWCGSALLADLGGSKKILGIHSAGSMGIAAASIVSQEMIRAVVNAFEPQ

[7] = biological target: T3, SAFV 3C^pro (Saffold virus, UniProt C0MHL9); type: cell-based
T3 sequence (C0MHL9 1618-1834 limits assumed): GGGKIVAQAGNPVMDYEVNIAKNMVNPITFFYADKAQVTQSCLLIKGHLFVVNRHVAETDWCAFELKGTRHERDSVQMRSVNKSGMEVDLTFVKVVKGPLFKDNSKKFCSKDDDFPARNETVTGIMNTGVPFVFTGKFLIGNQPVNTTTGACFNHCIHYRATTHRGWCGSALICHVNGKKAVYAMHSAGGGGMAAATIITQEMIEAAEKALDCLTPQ

[8] = biological target: T4, HPeV 3C^pro (Human parechovirus 1, UniProt Q66578); type: cell-based
T4 sequence (Q66578 1518-1711 limits assumed): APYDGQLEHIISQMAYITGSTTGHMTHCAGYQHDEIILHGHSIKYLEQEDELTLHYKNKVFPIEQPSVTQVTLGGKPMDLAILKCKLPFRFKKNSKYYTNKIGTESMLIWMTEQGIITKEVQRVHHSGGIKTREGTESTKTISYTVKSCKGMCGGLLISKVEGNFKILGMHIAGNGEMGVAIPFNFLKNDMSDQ

[9] = biological target: T5, HAV 3C^pro (Human hepatitis A virus genotype IB, UniProt P08617); type: cell-based
T5 sequence (P08617 1520-1738 limits assumed): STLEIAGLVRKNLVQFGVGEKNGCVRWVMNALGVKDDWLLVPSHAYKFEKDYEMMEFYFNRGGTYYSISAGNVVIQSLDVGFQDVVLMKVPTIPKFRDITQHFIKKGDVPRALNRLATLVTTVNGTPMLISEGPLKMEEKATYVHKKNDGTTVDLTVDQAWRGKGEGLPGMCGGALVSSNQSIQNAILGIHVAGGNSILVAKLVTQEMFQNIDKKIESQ

[10] = system: EMCV; assay: Growth curves of EMCV; type: cell-based; conditions: 50 μM
[11] = system: SAFV; assay: Growth curves of SAFV; type: cell-based; conditions: 50 μM
[12] = biological target: T1, CVB3 3C^pro; assay: Western blot of fusion protein cleavage in COS-1 cells; type: cell-based; conditions: 50 μM, pBind-3Cpro(CVB3)-VP16
[13] = biological target: T1, CVB3 3C^pro; assay: Cell-based protease assay with EGFP read-out; conditions: 50 μM, COS-1 cells, imaged after 2 days
[14] = system: HAV strain HM175; conditions: ref Debing et al., 2013; cited from earlier work

Compound	EC50 [1]	FLuc expression upon treatment, CVB3 3Cpro construct ([1]; 50 μM, COS-1 cells)	increase in FLuc levels compared to untreated ([1]; 50 μM, COS-1 cells, CVB3 3Cpro construct)	FLuc expression upon treatment, FMDV 3Cpro construct [2]	FLuc expression upon treatment, EV71 3Cpro construct [3]	FLuc expression upon treatment, PV 3Cpro construct [4]	FLuc expression upon treatment, HRV14 3Cpro construct [5]	effect on reporter activity, EMCV 3Cpro construct [6]	effect on reporter activity, SAFV 3Cpro construct [7]	effect on reporter activity, HPeV 3Cpro construct [8]	effect on reporter activity, HAV 3Cpro construct [9]	activity against EMCV in growth curves [10]	activity against SAFV in growth curves [11]	cleavage of fusion protein (Western blot) [12]	GFP signal from pG5EGFP reporter [13]	effect on HAV replication, strain HM175 [14]	EC50 [2]	inhibitory activity towards FMDV 3Cpro [2]
CCOC(=O)/C=C/[C@H](C[C@@H]1CCNC1=O)NC(=O)[C@@H](CC(=O)[C@@H](NC(=O)c1cc(C)on1)C(C)C)Cc1ccc(F)cc1 [AG7088]	1.1 µM	induced	~40 fold	increased	induced	induced	induced	no effect	no effect	no effect	no effect	no significant activity	no significant activity	not completely blocked	GFP was visible	no effect	–	–
C#CC[C@@H](C(=O)N[C@H](/C=C/C(=O)OCC)C[C@@H]1CCNC1=O)n1cccc(NC(=O)c2cc(C)on2)c1=O [AG7404]	3.6 µM	–	–	–	–	–	–	–	–	–	–	–	–	–	–	–	> 100 µM	little or no inhibitory activity
